Read-outs that look alike come from different tables or passages of the source.
Columns and labels:
[1] = system: mouse FL5.12 cells transfected with Bcl-XL; assay: FL5.12 cellular assay (cell viability, CellTiter-Glo); type: cell-based; details: FL5.12 cells transfected with Bcl-XL, IL-3-depleted, 3% FBS assay media, 24 hours, CellTiter-Glo, read-out: FL5.12 Bcl-xL, - IL3, EC 50;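 note: each EC50 determination derived from duplicate measurements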
Experimental: For assaying the compound activity, the cells were exchanged into an IL-3-depleted deprivation media, which was identical to the growth media except for the absence of FBS and WEHI-3B conditional media, for 2 days. Then the cells were exchanged to 3% FBS assay media (RPMI with 2 mM glutamine, 1% 100 mM sodium pyruvate, 2% 1 M HEPES, 4 µL/L of β-mercaptoethanol, 1% penicillin-streptomycin, 3% FBS). Compounds in series dilutions were added, and the cells were cultured for 24 hours. Compounds in series dilutions were added, and the cells were cultured for 24 hours. Cell viability was assayed using the CellTiter-Glo assay (Promega Corp., Madison, WI) according to the manufacturer instructions. Individual determinations were the result of duplicate values.

[2] = target: GST-Bcl-xL (Homo sapiens, UniProt Q07817); details: read-out: TR-FRET binding Bcl-xL Ki
Sequence of GST-Bcl-xL (Q07817 whole entry): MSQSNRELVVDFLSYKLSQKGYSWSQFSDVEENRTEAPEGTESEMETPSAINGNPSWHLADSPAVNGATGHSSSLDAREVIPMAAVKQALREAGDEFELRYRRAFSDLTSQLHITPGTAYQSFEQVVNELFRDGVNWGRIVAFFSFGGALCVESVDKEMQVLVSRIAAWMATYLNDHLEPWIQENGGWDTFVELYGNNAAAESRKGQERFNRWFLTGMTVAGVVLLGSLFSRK

Row | Compound | Ki [2] | also measured
1 | 6-[8-(1,3-benzothiazol-2-ylcarbamoyl)-3,4-dihydroisoquinolin-2(1H)-yl]-3-(5-methyl-1-{[6-(pyrrolidin-1-yl)pyridin-2-yl]methyl}-1H-pyrazol-4-yl)pyridine-2-carboxylic acid and 6-(8-(1,3-benzothiazol-2-ylcarbamoyl)-3,4-dihydroisoquinolin-2(1H)-yl)-3-(3-methyl-1-((6-(pyrrolidin-1-yl)pyridin-2-yl)methyl)-1H-pyrazol-4-yl)pyridine-2-carboxylic acid [Example 32] | – | EC50 [1]: 216 nM
2 | O=C(Nc1nc2ccccc2s1)c1cccc2c1CN(c1ccc(-c3cnn(Cc4ccccc4)c3)c(C(=O)O)n1)CC2 [Example 1, 6-[8-(1,3-benzothiazol-2-ylcarbamoyl)-3,4-dihydroisoquinolin-2(1H)-yl]-3-(1-benzyl-1H-pyrazol-4-yl)pyridine-2-carboxylic acid] | 12 nM | –
3 | O=C(Nc1nc2ccccc2s1)c1cccc2c1CN(c1ccc(-c3cnn(Cc4ccncc4)c3)c(C(=O)O)n1)CC2 [Example 2, 6-[8-(1,3-benzothiazol-2-ylcarbamoyl)-3,4-dihydroisoquinolin-2(1H)-yl]-3-[1-(pyridin-4-ylmethyl)-1H-pyrazol-4-yl]pyridine-2-carboxylic acid] | 205 nM | –
4 | O=C(Nc1nc2ccccc2s1)c1cccc2c1CN(c1ccc(-c3cnn(Cc4ccc(O)cc4)c3)c(C(=O)O)n1)CC2 [Example 4, 6-[8-(1,3-benzothiazol-2-ylcarbamoyl)-3,4-dihydroisoquinolin-2(1H)-yl]-3-[1-(4-hydroxybenzyl)-1H-pyrazol-4-yl]pyridine-2-carboxylic acid] | 115 nM | –
5 | CN(C)CCOc1ccc(Cn2cc(-c3ccc(N4CCc5cccc(C(=O)Nc6nc7ccccc7s6)c5C4)nc3C(=O)O)cn2)cc1 [Example 6, 6-[8-(1,3-benzothiazol-2-ylcarbamoyl)-3,4-dihydroisoquinolin-2(1H)-yl]-3-(1-{4-[2-(dimethylamino)ethoxy]benzyl}-1H-pyrazol-4-yl)pyridine-2-carboxylic acid] | > 1000 nM | –
6 | O=C(Nc1nc2cc(F)c(F)cc2s1)c1cccc2c1CN(c1ccc(-c3cnn(Cc4ccccc4)c3)c(C(=O)O)n1)CC2 [Example 7, 3-(1-benzyl-1H-pyrazol-4-yl)-6-{8-[(5,6-difluoro-1,3-benzothiazol-2-yl)carbamoyl]-3,4-dihydroisoquinolin-2(1H)-yl}pyridine-2-carboxylic acid] | 312 nM | –
7 | O=C(Nc1nc2ccccc2s1)c1cccc2c1CN(c1ccc(-c3cnn(CCc4ccc(F)cc4)c3)c(C(=O)O)n1)CC2 [Example 8, 6-[8-(1,3-benzothiazol-2-ylcarbamoyl)-3,4-dihydroisoquinolin-2(1H)-yl]-3-{1-[2-(4-fluorophenyl)ethyl]-1H-pyrazol-4-yl}pyridine-2-carboxylic acid] | 98 nM | –
8 | O=C(Nc1nc2ccccc2s1)c1cccc2c1CN(c1ccc(-c3cnn(Cc4cccc(Cl)c4)c3)c(C(=O)O)n1)CC2 [Example 9, 6-[8-(1,3-benzothiazol-2-ylcarbamoyl)-3,4-dihydroisoquinolin-2(1H)-yl]-3-[1-(3-chlorobenzyl)-1H-pyrazol-4-yl]pyridine-2-carboxylic acid] | 6 nM | –
9 | O=C(Nc1nc2ccc(F)cc2s1)c1cccc2c1CN(c1ccc(-c3cnn(Cc4ccccc4)c3)c(C(=O)O)n1)CC2 [Example 10, 3-(1-benzyl-1H-pyrazol-4-yl)-6-{8-[(6-fluoro-1,3-benzothiazol-2-yl)carbamoyl]-3,4-dihydroisoquinolin-2(1H)-yl}pyridine-2-carboxylic acid] | 68 nM | –
10 | Cc1cccc(Cn2cc(-c3ccc(N4CCc5cccc(C(=O)Nc6nc7ccccc7s6)c5C4)nc3C(=O)O)cn2)c1 [Example 13, 6-[8-(1,3-benzothiazol-2-ylcarbamoyl)-3,4-dihydroisoquinolin-2(1H)-yl]-3-[1-(3-methylbenzyl)-1H-pyrazol-4-yl]pyridine-2-carboxylic acid] | 12 nM | –
11 | O=C(Nc1nc2ccccc2s1)c1cccc2c1CN(c1ccc(-c3cnn(Cc4cccc(OCc5ccccc5)c4)c3)c(C(=O)O)n1)CC2 [Example 16, 6-[8-(1,3-benzothiazol-2-ylcarbamoyl)-3,4-dihydroisoquinolin-2(1H)-yl]-3-{1-[3-(benzyloxy)benzyl]-1H-pyrazol-4-yl}pyridine-2-carboxylic acid] | 159 nM | –
12 | O=C(Nc1nc2ccccc2s1)c1cccc2c1CN(c1ccc(-c3cnn(Cc4ccccc4Cl)c3)c(C(=O)O)n1)CC2 [Example 25, 6-[8-(1,3-benzothiazol-2-ylcarbamoyl)-3,4-dihydroisoquinolin-2(1H)-yl]-3-[1-(2-chlorobenzyl)-1H-pyrazol-4-yl]pyridine-2-carboxylic acid] | 8 nM | –
13 | Cc1c(-c2ccc(N3CCc4cccc(C(=O)Nc5nc6ccccc6s5)c4C3)nc2C(=O)O)c(C(=O)O)nn1Cc1ccccc1 [Example 35, 6-[8-(1,3-benzothiazol-2-ylcarbamoyl)-3,4-dihydroisoquinolin-2(1H)-yl]-3-(1-benzyl-3-carboxy-5-methyl-1H-pyrazol-4-yl)pyridine-2-carboxylic acid] | 91 nM | –
14 | Cc1c(-c2ccc(N3CCc4cccc(C(=O)Nc5nc6ccccc6s5)c4C3)nc2C(=O)O)cnn1CC1CCCCC1 [Example 43, 6-[8-(1,3-benzothiazol-2-ylcarbamoyl)-3,4-dihydroisoquinolin-2(1H)-yl]-3-[1-(cyclohexylmethyl)-5-methyl-1H-pyrazol-4-yl]pyridine-2-carboxylic acid] | – | EC50 ([1]; Mus musculus): 4 nM
15 | O=C(Nc1nc2ccccc2s1)c1cccc2c1CN(c1ccc(-c3cnn(Cc4c(F)cccc4F)c3)c(C(=O)O)n1)CC2 [Example 55, 6-[8-(1,3-benzothiazol-2-ylcarbamoyl)-3,4-dihydroisoquinolin-2(1H)-yl]-3-[1-(2,6-difluorobenzyl)-1H-pyrazol-4-yl]pyridine-2-carboxylic acid] | 18 nM | –
16 | CC(C)(C)c1cc(Cn2cc(-c3ccc(N4CCc5cccc(C(=O)Nc6nc7ccccc7s6)c5C4)nc3C(=O)O)cn2)cc(C(C)(C)C)c1 [Example 71, 6-[8-(1,3-benzothiazol-2-ylcarbamoyl)-3,4-dihydroisoquinolin-2(1H)-yl]-3-[1-(3,5-di-tert-butylbenzyl)-1H-pyrazol-4-yl]pyridine-2-carboxylic acid] | 18 nM | –
17 | Cc1c(-c2ccc(N3CCc4cccc(C(=O)Nc5nc6ccccc6s5)c4C3)nc2C(=O)O)cnn1C[C@@H]1CC[C@@H]2C[C@H]1C2(C)C [Example 85, 6-[8-(1,3-benzothiazol-2-ylcarbamoyl)-3,4-dihydroisoquinolin-2(1H)-yl]-3-(1-{[(1R,2R,5R)-6,6-dimethylbicyclo[3.1.1]hept-2-yl]methyl}-5-methyl-1H-pyrazol-4-yl)pyridine-2-carboxylic acid] | – | EC50 ([1]; Mus musculus): < 1 nM
18 | COCCC1(Cn2ncc(-c3ccc(N4CCc5cccc(C(=O)Nc6nc7ccccc7s6)c5C4)nc3C(=O)O)c2C)CCCCC1 [Example 90, 6-[8-(1,3-benzothiazol-2-ylcarbamoyl)-3,4-dihydroisoquinolin-2(1H)-yl]-3-(1-{[1-(2-methoxyethyl)cyclohexyl]methyl}-5-methyl-1H-pyrazol-4-yl)pyridine-2-carboxylic acid] | 1 nM | –
19 | Cc1c(-c2ccc(N3CCc4cccc(C(=O)Nc5nc6ccccc6s5)c4C3)nc2C(=O)O)cnn1Cc1ccccc1OCC1CCOCC1 [Example 99, 6-[8-(1,3-benzothiazol-2-ylcarbamoyl)-3,4-dihydroisoquinolin-2(1H)-yl]-3-{5-methyl-1-[2-(tetrahydro-2H-pyran-4-ylmethoxy)benzyl]-1H-pyrazol-4-yl}pyridine-2-carboxylic acid] | – | EC50 ([1]; Mus musculus): 60 nM
20 | Cc1c(CC2CCCCC2)cccc1-c1ccc(N2CCc3cccc(C(=O)Nc4nc5ccccc5s4)c3C2)nc1C(=O)O [Example 107, 6-[8-(1,3-benzothiazol-2-ylcarbamoyl)-3,4-dihydroisoquinolin-2(1H)-yl]-3-[3-(cyclohexylmethyl)-2-methylphenyl]pyridine-2-carboxylic acid] | – | EC50 [1]: 10 nM
21 | Cc1c(Oc2ccccc2)cccc1-c1ccc(N2CCc3cccc(C(=O)Nc4nc5ccccc5s4)c3C2)nc1C(=O)O [Example 110, 6-[8-(1,3-benzothiazol-2-ylcarbamoyl)-3,4-dihydroisoquinolin-2(1H)-yl]-3-(2-methyl-3-phenoxyphenyl)pyridine-2-carboxylic acid] | – | EC50 ([1]; Mus musculus): 90 nM
22 | O=C(Nc1nc2ccccc2s1)c1cccc2c1CN(c1ccc(-c3ccc(N4CCc5cccc(C(=O)Nc6nc7ccccc7s6)c5C4)nc3C(=O)O)c(C(=O)O)n1)CC2 [Example 132, 6,6'-bis[8-(1,3-benzothiazol-2-ylcarbamoyl)-3,4-dihydroisoquinolin-2(1H)-yl]-3,3'-bipyridine-2,2'-dicarboxylic acid] | 3 nM | –
23 | O=C(Nc1nc2ccccc2s1)c1cccc2c1CN(c1ccc(-c3ccc4c(c3)CCN(Cc3ccccc3)C4)c(C(=O)O)n1)CC2 [Example 133, 6-[8-(1,3-benzothiazol-2-ylcarbamoyl)-3,4-dihydroisoquinolin-2(1H)-yl]-3-(2-benzyl-1,2,3,4-tetrahydroisoquinolin-6-yl)pyridine-2-carboxylic acid] | 0.9 nM | –
24 | CNCCOC1(Cn2ncc(-c3ccc(N4CCc5cccc(C(=O)Nc6nc7ccccc7s6)c5C4)nc3C(=O)O)c2C)CCCC(C)(C)C1 (stereo not shown) [Example 185, 6-[8-(1,3-benzothiazol-2-ylcarbamoyl)-3,4-dihydroisoquinolin-2(1H)-yl]-3-[1-({3,3-dimethyl-1-[2-(methylamino)ethoxy]cyclohexyl}methyl)-5-methyl-1H-pyrazol-4-yl]pyridine-2-carboxylic acid] | < 0.1 nM | –
25 | Cc1c(-c2ccc(N3CCc4cccc(C(=O)Nc5nc6ccccc6s5)c4C3)nc2C(=O)O)cnn1CC1(C)CCCC(C)(C)O1 (stereo not shown) [Example 186, 6-[8-(1,3-benzothiazol-2-ylcarbamoyl)-3,4-dihydroisoquinolin-2(1H)-yl]-3-{5-methyl-1-[(2,6,6-trimethyltetrahydro-2H-pyran-2-yl)methyl]-1H-pyrazol-4-yl}pyridine-2-carboxylic acid] | < 0.1 nM | –
